Measurements: US20130123481A1, “MODIFIED NUCLEOSIDES, NUCLEOTIDES, AND NUCLEIC ACIDS, AND USES THEREOF” (MODERNA THERAPEUTICS, priority 2011, published 2013)
Values belong to the molecule of their own block, whether it stands above or below them.

Columns and labels:
[1] = test system: peripheral blood mononuclear cells (PBMC); assay: In Vitro Screening in PBMC - G-CSF protein expression; type: cell-based, human; details: 500 ng mRNA
Excerpt: (§1) The supernatant was harvested and stored frozen until analyzed by ELISA to determine the G-CSF protein expression, and the induction of the cytokines interferon-alpha (IFN-α) and tumor necrosis factor alpha (TNF-α).

Balb-C mice = assay: In Vivo Screening of Luciferase Modified mRNA (bioluminescence, total flux); details: fully modified luciferase mRNA in 1×PBS, subcutaneous, 42 to 103 ug, imaged 8 hours after dosing, total flux of entire mouse
Procedure: A control of PBS was also tested. The dosages of the modified luciferase mRNA is also outlined in Table 31. 8 hours after dosing the mice were imaged to determine luciferase expression. Twenty minutes prior to imaging, mice were injected intraperitoneally with a D-luciferin solution at 150 mg/kg. Animals were then anesthetized and images were acquired with an IVIS Lumina II imaging system (Perkin Elmer). Bioluminescence was measured as total flux (photons/second) of the entire mouse.

HeLa cells = assay: G-CSF expression in HeLa cells (ELISA); type: cell-based, human; details: fully modified G-CSF mRNA transfected in HeLa cells, ELISA
Procedure: (§2) To assess the activity of all our different chemical modifications in the context of a second open reading frame, we replicated experiments previously conducted using luciferase mRNA, with human G-CSF mRNA. […] The mutant T7 polymerase was obtained commercially (Durascribe® T7 Transcription kit (Cat. No. DS010925) (Epicentre®, Madison, Wis.).
(§3) The modified RNA in Tables 45 and 46 were transfected in vitro in HeLa cells or added to rabbit reticulysates (250 ng of modified mRNA) as indicated. […] In Table 45, “NT” means not tested.

rabbit reticulysates = assay: G-CSF expression in rabbit reticulysates (ELISA); type: biochemical; details: 250 ng modified G-CSF mRNA in rabbit reticulysates
Procedure: as §2, §3

wild-type T7 polymerase = wild-type T7 polymerase (Escherichia phage T7, UniProt P00573); assay: In Vitro Transcription with Wild-Type T7 Polymerase (transcription and capping yield); details: OD260; for In vitro transcription Yield: wild-type T7 polymerase; for Capping reaction Yield: enzymatic capping
Procedure: The luciferase and G-CSF modified mRNA were also subjected to an enzymatic capping reaction and each modified mRNA capping reaction was evaluated for yield by spectrophometic measurement (OD260) and correct size assessed using bioanalyzer.

[2] = test system: peripheral blood mononuclear cells (PBMC), interferon-alpha (IFN-α); type: cell-based, human; details: for IFN-α Expression (pg/ml) Donor 1 / IFN-α Expression (pg/ml) Donor 2 / IFN-α Expression (pg/ml) Donor 3: 500 ng fully modified G-CSF mRNA; for IFN-α Expression (pg/ml) Donor 1: Lipofectamine 2000, PBMC Donor 1, supernatant ELISA; for IFN-α Expression (pg/ml) Donor 2: Lipofectamine 2000, PBMC Donor 2, supernatant ELISA; for IFN-α Expression (pg/ml) Donor 3: Lipofectamine 2000, PBMC Donor 3, supernatant ELISA
Excerpt: as §1

[3] = test system: peripheral blood mononuclear cells (PBMC), tumor necrosis factor alpha (TNF-α); assay: In Vitro Screening in PBMC - tumor necrosis factor alpha (TNF-α) induction; type: cell-based, human; details: 500 ng fully modified G-CSF mRNA; for TNF-α Expression (pg/ml) Donor 1: Lipofectamine 2000, PBMC Donor 1, supernatant ELISA; for TNF-α Expression (pg/ml) Donor 2: Lipofectamine 2000, PBMC Donor 2, supernatant ELISA; for TNF-α Expression (pg/ml) Donor 3: Lipofectamine 2000, PBMC Donor 3, supernatant ELISA
Excerpt: as §1

[4] = test system: Salmonella tester strains (TA97a, TA98, TA100 and TA1535) and Escherichia coli strain (WP2 uvrA pKM101); assay: Microames Reverse Mutation Screen; details: for Cytotoxicity (reduction in the background lawn and/or number of revertants) / increase in the number of revertant colonies as compared with the vehicle control: any strain, with or without metabolic activation; for mutagenic (microAmes screen): up to 250 ug/well, strains TA97a, TA98, TA100, TA1535 and WP2 uvrA pKM101 with or without metabolic activation
Procedure: The microames screen is a version of the full Ames preincubation assay. It detects both frameshift and base-pair substitution mutations using four Salmonella tester strains (TA97a, TA98, TA100 and TA1535) and one Escherichia coli strain (WP2 uvrA pKM101). Strains TA97a and TA98 detect frameshift mutations, and TA100, TA1535 and WP2 uvrA pKM101 detect base-pair substitution mutations. This scaled-down Ames test uses minimal compound, is conducted with and without metabolic activation (S9 fraction), and uses multiwell plates. This teste is a microbial assay to detect the mutagenic potential of test compounds.
Positive control compounds were used at 4 different concentrations to ensure the assay system was sensitive to known mutagenic compounds. DMSO was used as the vehicle control.

[5] = test system: peripheral blood mononuclear cells (PBMC), IFN-alpha; assay: In Vitro PBMC Studies: Percent modification - IFN-alpha expression; type: cell-based, human
Procedure: (§4) The supernatant was harvested and run by ELISA 22 hours after transfection to determine the protein expression.

[6] = test system: peripheral blood mononuclear cells (PBMC); assay: In Vitro PBMC Studies: Percent modification - G-CSF expression; type: cell-based, human; details: average of PBMC donors D1-D3
Procedure: 480 ng of G-CSF mRNA modified with 5-methylcytosine (5mC) and pseudouridine (pseudoU) or unmodified G-CSF mRNA was transfected with 0.4 uL of Lipofectamine 2000 into peripheral blood mononuclear cells (PBMC) from three normal blood donors (D1, D2, and D3). […] The supernatant was harvested and run by ELISA 22 hours after transfection to determine the protein expression. The expression of IFN-alpha and TNF-alpha may be a secondary effect from the transfection of the G-CSF mRNA.

[7] = test system: peripheral blood mononuclear cells (PBMC), TNF-alpha; assay: In Vitro PBMC Studies: Percent modification - TNF-alpha expression; type: cell-based, human
Procedure: as §4

[8] = Stability of Modified RNA - storage, gel electrophoresis; type: physicochemical
Procedure: Stability experiments were conducted to obtain a better understanding of storage conditions to retain the integrity of modified RNA. […] After the mRNA had been stored for 0 hours, 2 hours, 6 hours, 24 hours, 48 hours, 5 days and 14 days, the mRNA was analyzed by gel electrophoresis using a Bio-Rad EXPERION™ system. The modified, unmodified and lipoplexed G-CSF mRNA was also stored in RNASTABLE® (Biomatrica, Inc. San Diego, Calif.) at 40° C. or water at −80° C. or 40° C. for 35 days before being analyzed by gel electrophoresis.

[9] = PBMC Donor 1, 0.4 uL Lipofectamine 2000
[10] = G-CSF modified mRNA (wild-type T7)
[11] = Luciferase modified mRNA (wild-type T7)

Sequence of wild-type T7 polymerase (P00573 whole entry): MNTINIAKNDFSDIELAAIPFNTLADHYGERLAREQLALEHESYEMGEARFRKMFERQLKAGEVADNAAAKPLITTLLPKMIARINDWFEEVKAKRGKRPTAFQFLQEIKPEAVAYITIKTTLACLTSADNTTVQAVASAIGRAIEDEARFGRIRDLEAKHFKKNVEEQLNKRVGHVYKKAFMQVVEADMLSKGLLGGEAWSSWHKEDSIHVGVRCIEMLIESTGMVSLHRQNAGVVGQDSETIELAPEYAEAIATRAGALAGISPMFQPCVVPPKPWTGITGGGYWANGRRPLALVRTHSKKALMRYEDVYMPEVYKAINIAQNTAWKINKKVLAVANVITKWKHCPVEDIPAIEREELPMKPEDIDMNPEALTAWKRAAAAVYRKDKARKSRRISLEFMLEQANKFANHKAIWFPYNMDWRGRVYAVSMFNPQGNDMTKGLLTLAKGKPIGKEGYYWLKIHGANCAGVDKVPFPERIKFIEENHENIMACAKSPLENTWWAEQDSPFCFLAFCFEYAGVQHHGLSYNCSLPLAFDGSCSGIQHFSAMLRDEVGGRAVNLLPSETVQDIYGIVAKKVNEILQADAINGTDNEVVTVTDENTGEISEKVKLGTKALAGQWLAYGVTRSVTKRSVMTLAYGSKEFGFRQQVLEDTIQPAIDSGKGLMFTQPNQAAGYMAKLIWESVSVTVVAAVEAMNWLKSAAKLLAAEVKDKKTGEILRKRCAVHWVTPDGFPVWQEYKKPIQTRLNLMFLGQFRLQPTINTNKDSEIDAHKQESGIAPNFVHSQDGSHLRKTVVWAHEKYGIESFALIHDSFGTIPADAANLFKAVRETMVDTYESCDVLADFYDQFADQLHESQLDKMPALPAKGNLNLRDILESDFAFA

Molecule: O=c1[nH]cc([C@@H]2O[C@H](CO)[C@@H](O)[C@H]2O)c(=O)[nH]1 [pseudouridine, Pseudouridine]
G-CSF Protein Expression [1, 9]: 2477 pg/mL | G-CSF Protein Expression ([1]; PBMC Donor 2): 1,909 pg/ml | G-CSF Protein Expression ([1]; PBMC Donor 3): 1,498 pg/ml | Luciferase expression (photon/second) (Balb-C mice): 1.36E+07 photon/second | G-CSF protein (pg/ml) HeLa cells (HeLa cells): 1,150,909 pg/ml | G-CSF protein (pg/ml) Rabbit reticulysates cells (rabbit reticulysates): 147,875 pg/ml

Molecule: Cn1cc([C@@H]2O[C@H](CO)[C@@H](O)[C@H]2O)c(=O)[nH]c1=O [N1-methylpseudouridine]
In vitro transcription Yield (wild-type T7 polymerase; G-CSF mRNA): 3.24 mg | Capping reaction Yield (wild-type T7 polymerase; [10]): 2.58 mg | In vitro transcription Yield (wild-type T7 polymerase; Luciferase mRNA): 1.43 mg | Capping reaction Yield (wild-type T7 polymerase; [11]): 1.27 mg | cytokine induction (in words) [2]: no cytokine induction | IFN-α Expression (pg/ml) Donor 1 [2]: 26 pg/mL | IFN-α Expression (pg/ml) Donor 2 [2]: 75 pg/mL | IFN-α Expression (pg/ml) Donor 3 [2]: 138 pg/mL | G-CSF Protein Expression [1, 9]: 21,495 pg/ml | G-CSF Protein Expression ([1]; PBMC Donor 2): 16,550 pg/ml | G-CSF Protein Expression ([1]; PBMC Donor 3): 12,441 pg/ml | G-CSF protein (pg/ml) Rabbit reticulysates cells (rabbit reticulysates): 230,000 pg/ml | TNF-α Expression (pg/ml) Donor 1 [3]: 101 pg/mL | TNF-α Expression (pg/ml) Donor 2 [3]: 106 pg/mL | TNF-α Expression (pg/ml) Donor 3 [3]: 134 pg/mL | Cytotoxicity (reduction in the background lawn and/or number of revertants) [4]: not observed | increase in the number of revertant colonies as compared with the vehicle control [4]: no increase | mutagenic (microAmes screen) [4]: not mutagenic

Average IFN-a [5]: 545 pg/mL | Average TNF-a [7]: 44 pg/mL
Molecule: C[C@]1(CO)O[C@@H](n2ccc(N)nc2=O)[C@H](O)[C@@H]1O [Compound 25, 4′-C-methyl cytidine]
Average G-CSF [6]: 122 pg/mL

Molecule: Cc1cn([C@@H]2O[C@H](CO)[C@@H](O)[C@H]2O)c(=O)nc1N [5-Methylcytidine, reference compound]
In vitro transcription Yield (wild-type T7 polymerase; G-CSF mRNA): 2.05 mg | Capping reaction Yield (wild-type T7 polymerase; [10]): 1.08 mg | In vitro transcription Yield (wild-type T7 polymerase; Luciferase mRNA): 1.29 mg | Capping reaction Yield (wild-type T7 polymerase; [11]): 1.02 mg | IFN-α Expression (pg/ml) Donor 1 [2]: 643 pg/mL | IFN-α Expression (pg/ml) Donor 2 [2]: 359 pg/mL | IFN-α Expression (pg/ml) Donor 3 [2]: 529 pg/mL | G-CSF Protein Expression [1, 9]: 291 pg/mL | G-CSF Protein Expression ([1]; PBMC Donor 2): 277 pg/mL | G-CSF Protein Expression ([1]; PBMC Donor 3): 359 pg/mL | Luciferase expression (photon/second) (Balb-C mice): 1.94E+07 photon/second | TNF-α Expression (pg/ml) Donor 1 [3]: 176 pg/mL | TNF-α Expression (pg/ml) Donor 2 [3]: 136 pg/mL | TNF-α Expression (pg/ml) Donor 3 [3]: 193 pg/mL | Cytotoxicity (reduction in the background lawn and/or number of revertants) [4]: not observed | increase in the number of revertant colonies as compared with the vehicle control [4]: no increase | mutagenic (microAmes screen) [4]: not mutagenic

Molecule: Cc1cn([C@@H]2O[C@H](CO)[C@@H](O)[C@H]2O)c(=O)[nH]c1=O [5-methyluridine]
G-CSF Protein Expression [1, 9]: 318 pg/mL | G-CSF Protein Expression ([1]; PBMC Donor 2): 359 pg/mL | G-CSF Protein Expression ([1]; PBMC Donor 3): 345 pg/mL | Luciferase expression (photon/second) (Balb-C mice): 7.42E+06 photon/second | G-CSF protein (pg/ml) HeLa cells (HeLa cells): 347,045 pg/ml | G-CSF protein (pg/ml) Rabbit reticulysates cells (rabbit reticulysates): 147,250 pg/ml

Molecule: CC(=O)Nc1ccn([C@@H]2O[C@H](CO)[C@@H](O)[C@H]2O)c(=O)n1 [N4-acetylcytidine]
G-CSF Protein Expression [1, 9]: 50 pg/mL | G-CSF Protein Expression ([1]; PBMC Donor 2): 136 pg/mL | G-CSF Protein Expression ([1]; PBMC Donor 3): 36 pg/mL | Luciferase expression (photon/second) (Balb-C mice): 1.11E07 photon/second | G-CSF protein (pg/ml) HeLa cells (HeLa cells): 39,545 pg/ml | G-CSF protein (pg/ml) Rabbit reticulysates cells (rabbit reticulysates): 8,000 pg/ml

Molecule: CN(C)c1nc2c(ncn2[C@@H]2O[C@H](CO)[C@@H](O)[C@H]2O)c(=O)[nH]1 [Compound 50, N,N-dimethyl guanosine]
Average IFN-a [5]: 376 pg/mL | Average G-CSF [6]: 189 pg/mL | Average TNF-a [7]: 28 pg/mL

Molecule: O=c1[nH]c(=O)n([C@@H]2O[C@H](CO)[C@@H](O)[C@H]2O)cc1Br [5-bromouridine]
G-CSF Protein Expression [1, 9]: 314 pg/mL | G-CSF Protein Expression ([1]; PBMC Donor 2): 482 pg/mL | G-CSF Protein Expression ([1]; PBMC Donor 3): 291 pg/mL | Luciferase expression (photon/second) (Balb-C mice): 3.75E+07 photon/second

Molecule: Cn1cc([C@@H]2O[C@H](CO)[C@@H](O)[C@H]2O)c(=O)[nH]c1=O [Compound 1-methylpseudouridine, 1-methylpseudouridine]
Luciferase expression (photon/second) (Balb-C mice): 7.40E+07 photon/second

B1: Modified G-CSF mRNA: G-CSF mRNA fully modified with 5-methylcytosine and pseudouridine, with or without lipoplex (0.75% RNAIMAX) (nucleic acid, listed as Homo Sapiens)
chain: GGGAAAUAAGAGAGAAAAGAAGAGUAAGAAGAAAUAUAAGAGCCACCAUGGCCGGUCCCGCGACCCAAAGCCCCAUGAAACUUAUGGCCCUGCAGUUGCUGCUUUGGCACUCGGCCCUCUGGACAGUCCAAGAAGCGACUCCUCUCGGACCUGCCUCAUCGUUGCCGCAGUCAUUCCUUUUGAAGUGUCUGGAGCAGGUGCGAAAGAUUCAGGGCGAUGGAGCCGCACUCCAAGAGAAGCUCUGCGCGACAUACAAACUUUGCCAUCCCGAGGAGCUCGUACUGCUCGGGCACAGCUUGGGGAUUCCCUGGGCUCCUCUCUCGUCCUGUCCGUCGCAGGCUUUGCAGUUGGCAGGGUGCCUUUCCCAGCUCCACUCCGGUUUGUUCUUGUAUCAGGGACUGCUGCAAGCCCUUGAGGGAAUCUCGCCAGAAUUGGGCCCGACGCUGGACACGUUGCAGCUCGACGUGGCGGAUUUCGCAACAACCAUCUGGCAGCAGAUGGAGGAACUGGGGAUGGCACCCGCGCUGCAGCCCACGCAGGGGGCAAUGCCGGCCUUUGCGUCCGCGUUUCAGCGCAGGGCGGGUGGAGUCCUCGUAGCGAGCCACCUUCAAUCAUUUUUGGAAGUCUCGUACCGGGUGCUGAGACAUCUUGCGCAGCCGUGAAGCGCUGCCUUCUGCGGGGCUUGCCUUCUGGCCAUGCCCUUCUUCUCUCCCUUGCACCUGUACCUCUUGGUCUUUGAAUAAAGCCUGAGUAGGAAG
modifications: 5mC/pseudoU; Cap1; polyA tail
freeze/thaw cycles tolerated [8]: 12 freeze/thaw cycles | stable out to ([8]; stored at 25° C.): 120 h | stable out to ([8]; stored at 37° C.): 24 h | stable out to ([8]; stored at 50° C.): 6 h
